Test results: paper PMC12311729, “Probing the Mechanism of L‑DOPA 2,3-Dioxygenase Using Synthetic Derivatives of 3,4-Dihydroxyhydrocinnamic Acid” (ACS Omega, 2025)
“Also recorded” adds a separate entry of the source.

Legend:
[1] = Cyclic voltammetry (redox potentials on a GCE); format: physicochemical; conditions: for (E p)a Oxidation / (E p)c Reduction / E1/2 / Ipa/Ipc / ΔE p: GCE (d = 2 mm); for E1/2 (mV) at pH 7.4 relative to L-DOPA x 100: percentage of the value for L-DOPA
From the text: Reduction and oxidation potentials were experimentally performed by cyclic voltammetry (CV) at biological pH 7.4, as previously described. All samples were run on a CH Instruments 600E Potentiostat in a one-compartment cell equipped with a three-electrode system arrangement. The three-electrode system included a saturated calomel electrode as the reference electrode, a platinum wire as the auxiliary electrode, and a glassy carbon electrode (GCE, d = 2 mm) as the working electrode. The GCE was polished between each sample scan with an aqueous slurry of alumina powder on a microcloth pad. The electrodes were rinsed with distilled water prior to the next scan. All scans were conducted under nitrogen for oxygen displacement and at room temperature (rt, 25 ± 1 °C). All samples were prepared as close to the scan as possible (approximately 2 min each). Each sample (5 mL) contained 0.1 mM catecholic substrate and 1 μM DMSO in 0.1 M phosphate buffer at a pH of 7.4 or 6.0. […] The cyclic voltammograms for the compounds at both pH 6.0 and 7.4 are available in Figures S40–S51.

[2] = biological target: L-DOPA 2,3-dioxygenase from S. lincolnensis (LmbB1) (Streptomyces lincolnensis, UniProt Q54354); assay: UV-visible steady-state assay of L-DOPA 2,3-dioxygenase (LmbB1); format: biochemical; conditions: for activity / turnover as substrate: aerobic reaction observed by UV–visible spectroscopy; for kcat at 22 °C and 100% O2 saturation / kSP,O2 × 10^2 at 22 °C / kSP catechol × 10^2 at 22 °C: S. lincolnensis enzyme; for kcat at 22 °C and 100% O2 saturation: pH 7.5; for kSP,O2 × 10^2 at 22 °C / kSP catechol × 10^2 at 22 °C: values are kSP × 10^2; for kSP catechol × 10^2 at 22 °C: kSP = kcat/KM; for kSP, O2 (μM^-1 min^-1) at pH 7.5 relative to L-DOPA x 100 for LmbB1: percentage of the value for L-DOPA
L-DOPA 2,3-dioxygenase from S. lincolnensis (LmbB1), sequence (Q54354 entry or part of it): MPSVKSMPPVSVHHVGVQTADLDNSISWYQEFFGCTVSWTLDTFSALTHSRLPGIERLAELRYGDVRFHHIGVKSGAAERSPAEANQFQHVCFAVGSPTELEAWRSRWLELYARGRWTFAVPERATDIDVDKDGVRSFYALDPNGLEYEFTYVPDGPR
Experimental: (§1) Purified, reconstituted L-DOPA 2,3-dioxygenases were assessed for activity by monitoring the cleavage of catecholic substrates using UV–visible spectroscopy. 3,4-Dihydroxyhydrocinnamic acid (DHHCA, 3) was purchased from Sigma-Aldrich. 6-CyanoDHHCA (5) and 6-bromoDHHCA (4) were synthesized as described above.
(§2) Molecular oxygen (AirGas) was bubbled directly into the reaction buffer through a glass-bonded silica gas diffuser (Bubblemac Industries, Inc.) or as a gas mixture blended with air (AirGas). Solutions were bubbled with oxygen for several minutes prior to use and for the duration of the experiment. To determine the K M for oxygen (i.e., K MO2), L-DOPA 2,3-dioxygenases (0.25–4.0 μM) were reacted with a saturating concentration of the catecholic substrate DHHCA/6-X-DHHCA derivatives (2–10× the K M sufficient to achieve k cat) and various oxygen concentrations (21–100% or 270–1300 μM at 22 °C). The concentration of oxygen was varied by changing the percentage of oxygen in the blend using a galvanic oxygen sensor and oxygen monitor (AirGas) and then bubbling solutions, as described above. Molecular oxygen percentages were converted to molar concentrations using a reference temperature of 22 °C. The reaction of L-DOPA 2,3-dioxygenases with DHHCA/6-X-DHHCA derivatives as a function of oxygen concentration was followed by the appearance of the steady-state cleavage product by using UV–visible spectroscopy.
(§3) The extinction coefficients for steady-state cleavage products of DHHCA and synthetic 6-X-DHHCA derivatives were determined by reacting various concentrations of DHHCA/6-X-DHHCA derivatives at 22 °C with a 10-fold stoichiometric excess of enzyme (quantified by Fe^II–see Reconstitution) in 50 mM HEPES buffer with 154 mM NaCl at pH 7.5, bubbled with 100% oxygen to a final concentration of 780–910 μM, depending on the volume of oxygenated buffer that comprised the reaction (60–70%). Substrate solutions were prepared from authentic synthetic standards using an analytical balance, and reactions were run to completion as assessed by the appearance of the steady-state product. The λmax and extinction coefficients of DHHCA, 6-cyanoDHHCA, and 6-bromoDHHCA were determined herein as ε380 = 40 740 ± 820 M^–1cm^–1, ε385 = 33 256 ± 484 M^–1cm^–1, and ε380 = 35 282 ± 1190 M^–1cm^–1, respectively (Figure S52).
(§4) Steady-state kinetic data were obtained through a UV–visible spectroscopic assay. Initial rates were obtained from the slopes of the linear regions of the progress curves and plotted versus substrate concentration to yield a hyperbola, which was analyzed using the Michaelis–Menten expression and nonlinear least-squares fitting (NLSF) with Origin 6.0 (Microcal). Two possible derivations of the Michaelis–Menten expression were used: 1) the traditional expression y = k cat × x/(K M + x), where y is Rate/E 0 or the rate of product formation (μM/min) divided by the starting enzyme concentration (μM), x is substrate concentration (μM) and k SP (also known as k cat × K M ^–1)–that is, the second-order rate constant of enzyme and substrate–is extracted from the fitted constants; or 2) the alternative derivation that extracts k SP and k cat directly from the fit: y = (k SP × x)/((1 + k SP × x)/k cat), and where y is Rate/E 0 or the rate of product formation (μM/min) divided by the starting enzyme concentration (μM), x is substrate concentration (μM), k SP is equivalent to k cat×K M ^–1, and K M is extracted from k cat/k cat×K M ^–1.

[3] = biological target: L-DOPA 2,3-dioxygenase from S. hygroscopicus jingganensis (ShjDDO) (Streptomyces hygroscopicus, UniProt H2JL11); assay: UV-visible steady-state assay of L-DOPA 2,3-dioxygenase (ShjDDO); format: biochemical; conditions: for kcat at 22 °C and 100% O2 saturation / kSP,O2 × 10^2 at 22 °C / kSP catechol × 10^2 at 22 °C: S. hygroscopicus jingganensis enzyme; for kcat at 22 °C and 100% O2 saturation: pH 7.5; for kSP,O2 × 10^2 at 22 °C / kSP catechol × 10^2 at 22 °C: values are kSP × 10^2; for kSP catechol × 10^2 at 22 °C: kSP = kcat/KM; for activity / turnover as substrate: ShjDDO, aerobic reaction observed by UV–visible spectroscopy; for kSP, O2 (μM^-1 min^-1) at pH 7.5 relative to L-DOPA x 100 for ShjDDO: percentage of the value for L-DOPA
L-DOPA 2,3-dioxygenase from S. hygroscopicus jingganensis (ShjDDO), sequence (H2JL11 1-162): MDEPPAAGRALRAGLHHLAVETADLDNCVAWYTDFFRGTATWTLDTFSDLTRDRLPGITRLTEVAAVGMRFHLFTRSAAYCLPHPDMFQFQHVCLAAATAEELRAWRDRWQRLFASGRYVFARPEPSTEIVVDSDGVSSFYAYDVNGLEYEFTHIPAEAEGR
Experimental: as §1, §2, §3, §4

[4] = Determination of pKa values by spectrophotometric titration; conditions: for pK a value: first catecholic deprotonation, determined spectroscopically from pH 3 to 12.5; for Catecholic pKa value relative to L-DOPA x 100: percentage of the value for L-DOPA
Experimental: A buffer system utilizing five different buffers was prepared to cover the pH range of 3.0 to 12.50. A Thermo Scientific Orion Star A211 pH meter was used to measure and determine the pH of each buffer. The pH meter was calibrated using three- and four-point calibration with pH values of 4.00, 7.01, and 10.01 and 4.00, 7.01, 10.01, and 12.00, respectively.
The buffer systems were prepared as previously described and included: NaOAc/HOAc buffers (C = 0.1 M; I = 0.1 M) were used to cover the pH range of 3.0 to 5.50. KH2PO4/K2HPO4 buffers (C = 0.05 M; I = 0.1 M) were used to cover the pH range of 6.00 to 8.00. CHES buffers (C = 0.05 M; I = 0.1 M) were used to cover the pH range of 8.50 to 10.50. Na2HPO4/Na3PO4 buffers (C = 0.05 M; I = 0.1 M) were used to cover the pH range of 11.00 to 12.00. KCl buffers (C = 0.1 M; I = 0.1 M) were used to cover the pH range of 12.00 to 12.50.
The absorbance spectra of the compounds were determined at each pH as previously described. Briefly, a stock solution was prepared for each compound by weighing 2 mg of the compound using a high-precision analytical balance. Each compound was then dissolved in DMSO at a concentration of 10 mM. A UV-transparent 96-well microplate (Corning clear acrylic 96-well UV plate with a UV-transparent flat bottom) was loaded with 196 μL of buffer solution and 4 μL of the catechol stock in each well to get a final concentration of 200 μM. DMSO (4 μL) was added to 196 μL of the appropriate buffer to produce a blank solution for each buffer.
The 96-well plate was loaded into the microplate reader and incubated at 30 °C and shaken for 10 min before the reading. Absorbance readings were completed by using a Synergy HTX 15032517 microplate reader. Each well was read at wavelengths from 210 to 600 nm with 2-nm increments for each scan over a duration of 60 min.
The data were analyzed as previously described. Raw UV-spectra scans were exported to the Excel program. They were first processed by subtracting the reading of the blank solutions from the reading of each compound at the corresponding wavelengths. […] Finally, the spectral difference between the pH 3.0 buffer and the spectra at all other pH values was plotted. Additionally, the spectral difference between the pH 4.0 buffer and the spectra at all other higher pH values was plotted. The wavelengths for the maximum positive and negative absorbance were determined by using the graphs of the spectral difference plots, both for the pH 3.0 and pH 4.0 spectral difference plots. The absolute maximum positive and total absorbance differences at these chosen wavelengths were plotted against the pH of each buffer. The data were imported into the Origin 6.0 program, and the pK a values were determined with a nonlinear regression using eq : 1 Absorbancetotal=εHA−εA−[10^(pH−pKa)]/1+10^(pH−pKa)×[St]
εHA is the extinction coefficients of the acid form of the compound, and εA ^– is the extinction coefficient of the base form of the compound (i.e., the minima and maxima of the absorbance difference curve, respectively), and [S t] is the total compound concentration.

[5] = parameters: method as in Biochemistry 2021, 60, 32, 2492–2507; conditions: similarly 6-substituted dopamine; ref Biochemistry 2021, 60, 32, 2492–2507; cited from earlier work
[6] = system: S. hygroscopicus jingganensis L-DOPA 2,3-dioxygenase (ShjDDO); assay: Presteady state stopped-flow kinetic assay, modeled with KinTek Explorer; format: biochemical, Streptomyces hygroscopicus jingganensis; conditions: ratio k6/k7; presteady state with ShjDDO
Experimental: Reaction temperature was controlled at 14 ± 0.5 °C by a circulating water bath. […] Stock solutions of 6-[…] prepared in DMSO. […] ShjDDO was reconstituted with iron(II) sulfate heptahydrate, gel filtered into the reaction buffer, and loaded into the drive syringe. […] Fifteen to twenty progress curves from the same experimental conditions were averaged in the KinTek Stopped Flow software and exported to KinTek Explorer for modeling. Between experiments, the instrument drive syringes were cleaned with acid, base, and water; soaked in 1% Hellmanex detergent for 30 min at ∼30-35 °C; thoroughly rinsed with water; and stored in 10% ethanol. […] state kinetic data were analyzed by fitting to simulated mechanisms using the KinTek Explorer software (KinTek Corp, Austin, TX). KinTek Explorer simulates experimental results by using direct numerical integration of rate equations for the kinetic model and yields estimates for the rate constants of microscopic steps. […] state experiments were modeled using KinTek Explorer according to a defined reaction pathway, as described in the Results and Discussion and shown in Scheme . The extinction coefficients of the DHHCA and 6-[…] semialdehyde products were independently determined as described above and fixed during fitting. Some rates were fixed as either “fast” (i.e., 1 × 10^9) or very slow (1 × 10^-12, i.e., ∼0) as described in the text. The equilibrium represented by k 1 and k -1 was fixed at the ratio of substrate charge states as predicted by the experimentally determined pK a values (Table ) and the Henderson-Hasselbach equation. Extinction coefficients were fitted and/or fixed during fitting as described in the text and interpreted using the observable expression: […], where a is the extinction coefficient applied to ESQ, b is the independently experimentally determined extinction coefficient on P, and c is a y-axis offset. […] ESO2 is the ternary complex of enzyme, substrate, and oxygen. ESQ represents the putative semiquinone intermediate, a UV-absorbing species, and ESQ_X is the species formed from the nonproductive quenching of the semiquinone. […] EP is the enzyme-product complex, and P is the free semialdehyde product. P can then degrade nonenzymatically to the spectroscopically silent P_X. Errors on each fit were calculated from 2[…] at 0.83 Chi^2. The KinTek Explorer program FitSpace explores the uniqueness of a particular fit to the data by measuring the dependence of the sum square error (SSE) on each pair of parameters, while allowing all other parameters to vary in seeking the best fit. […]

[7] = LmbB1 active site, ratio to DHHCA
[8] = ShjDDO active site, ratio to DHHCA

SMILES | (E p)a Oxidation ([1]; pH 6.0) [mV] | (E p)c Reduction ([1]; pH 6.0) [mV] | E1/2 ([1]; pH 6.0) [mV] | Ipa/Ipc ([1]; pH 6.0) | ΔE p ([1]; pH 6.0) [mV] | (E p)a Oxidation ([1]; pH 7.4) [mV] | (E p)c Reduction ([1]; pH 7.4) | E1/2 ([1]; pH 7.4) [mV] | Ipa/Ipc ([1]; pH 7.4) | ΔE p ([1]; pH 7.4) [mV] | E1/2 (mV) at pH 7.4 relative to L-DOPA x 100 [1] [%] | activity / turnover as substrate ([2]; LmbB1) | kcat at 22 °C and 100% O2 saturation [2] | kSP,O2 × 10^2 at 22 °C [2] [μM^–1 min^–1] | kSP catechol × 10^2 at 22 °C [2] [μM^–1 min^–1] | kSP, O2 (μM^-1 min^-1) at pH 7.5 relative to L-DOPA x 100 for LmbB1 [2] [%] | activity / turnover as substrate [3] | kSP, O2 (μM^-1 min^-1) at pH 7.5 relative to L-DOPA x 100 for ShjDDO [3] [%] | pK a value [4] | Catecholic pKa value relative to L-DOPA x 100 [4] [%] | other results
O=C(O)CCc1cc(O)c(O)cc1Br [6-BromoDHHCA (4), 3-(2-bromo-4,5-dihydroxyphenyl) propanoic acid] | 267 | 154 | 210.5 | 1.43 | 113 | 195 | 59 mV | 127 | 1.21 | 136 | 63 | measurable activity | 1.6 × 10^–1 ± 4.6 × 10 ^–3 sec^–1 | 3.5 ± 0.5 | 4.6 ± 0.5 | 4 | measurable activity | ~11 | 8.36 ± 0.07 | 95 | K M tighter than DHHCA ([2]; LmbB1, ratio to DHHCA): 4.5 fold; k SP,O2 slower than DHHCA [2, 7]: more than 5 fold; k cat slower than DHHCA [2, 7]: more than 10 fold; kcat at 22 °C and 100% O2 saturation [3]: 1.5 ± 0.1 sec^–1; kSP,O2 × 10^2 at 22 °C [3]: 15.8 ± 1.0 μM^–1 min^–1; kSP catechol × 10^2 at 22 °C [3]: 9.8 ± 1.9 μM^–1 min^–1; k SP,O2 compared with DHHCA ([3]; ShjDDO active site): equivalent to DHHCA (3) within error; K M weaker than DHHCA [3, 8]: 2 fold; k cat faster than DHHCA [3, 8]: 2 fold
O=C(O)CCc1cc(O)c(O)cc1[N+](=O)[O-] [6-NitroDHHCA (6), 3-(4,5-dihydroxy-2-nitrophenyl) propanoic acid] | 444 |  |  |  |  | 288 |  |  |  |  |  | no turnover was detected; also recorded: did not undergo turnover |  |  |  |  | no turnover was detected; also recorded: did not undergo turnover |  | 6.94 ± 0.06 |  | 
NCCc1cc(O)c(O)cc1Br [Compound 6-bromoDA, 6-bromodopamine, reference compound] |  |  |  |  |  |  |  |  |  |  | 77 |  |  |  |  | 27 |  | 9 |  | 92 | pK a value of dopamine counterpart [5]: 8.09 ± 0.03
O=C(O)CCc1ccc(O)c(O)c1 [DHHCA (3), 3,4-dihydroxyhydrocinnamic acid] | 388 |  | 198.5 | 2.54 | 379 | 333 | –95 mV | 119 | 1.30 | 428 | 59 | measurable activity | 2.1 ± 0.2 sec^–1 | 19.2 ± 3.2 | 13.4 ± 2.5 | 23 | measurable activity | 13 | 8.87 ± 0.12 | 101 | kcat at 22 °C and 100% O2 saturation [3]: 6.7 × 10^–1 ± 5.0 × 10 ^–2 sec^–1; kSP,O2 × 10^2 at 22 °C [3]: 17.7 ± 2.6 μM^–1 min^–1; kSP catechol × 10^2 at 22 °C [3]: 9.5 ± 2.3 μM^–1 min^–1; productive formation of EI (k 6) faster than the rate of inactivation (k 7) [6]: ~40 times
N[C@@H](Cc1ccc(O)c(O)c1)C(=O)O [L-DOPA (1), L-3,4-dihydroxyphenylalanine] | 362 | 101 | 231.5 | 5.90 | 261 | 315 |  |  |  |  |  |  |  |  |  | 100 |  | 100 | 8.81 ± 0.19 | 100 | 
NCCc1cc(O)c(O)cc1[N+](=O)[O-] [dopamine counterpart of 6-NitroDHHCA (6), 6-nitrodopamine] |  |  |  |  |  |  |  |  |  |  |  |  |  |  |  |  |  |  |  |  | pK a value of dopamine counterpart [5]: 6.23 ± 0.03
